Results from patent publication USRE48461E1, “Modulation of androgen receptor expression” (Ionis Pharmaceuticals, Inc., priority 2012, dated 2021).
Oligonucleotides are written 5' to 3', each unit as a sugar letter and its base; * is a phosphorothioate linkage, no mark a phosphodiester; rarer units and linkages stand in square brackets, end groups in braces. Plain capitals give the bases only. e = 2'-O-(2-methoxyethyl) (MOE); k = constrained ethyl (cEt); [5mC] = 5-methylcytosine; d = 2'-deoxy (DNA)

How the values were obtained:
AR mRNA [1] = assay: AR mRNA in LnCaP cells by free uptake (hAR_LTS00943); format: cell-based, human; conditions: 24 hrs
Description: Cells were plated at a concentration of 4,000 cells/well in 96-well plates. ISIS oligonucleotides, specified in Table 68, were added individually at 0.02 μM, 0.10 μM, 0.50 μM, 2.50 μM, or 10.00 μM. After an incubation period of 24 hrs, mRNA levels were measured using primer probe set hAR_LTS00943.

AR mRNA [2] = assay: Dose-dependent antisense inhibition of human AR in HuVEC cells (electroporation, qRT-PCR RTS3559, IC50); format: cell-based; conditions: HuVEC, ~16 h, Table 8
Method in brief: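 HuVEC cells dosed with antisense oligonucleotides by electroporation and treated approximately 16 hours. AR mRNA quantified by real-time qPCR with primer probe set RTS3559 and normalised to total RNA by RIBOGREEN; IC50 from dose-response.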

TMPRSS2 mRNA = TMPRSS2 mRNA levels in LMR20 cells; format: cell-based, human; conditions: LMR20 cells; for TMPRSS2 mRNA levels (% baseline value) after treatment with DHT: DHT 10 nM 72 hrs; for TMPRSS2 mRNA levels (% baseline value) after treatment with R1881: R1881 10 nM 72 hrs; for TMPRSS2 mRNA levels (% baseline value) of cells without AR agonist treatment: no AR agonist
Description: (§1) LMR20 cells were plated at 1,500 cells per well in phenol red-free medium with CSS.

[3] = test system: prostate-specific antigen (PSA) mRNA; assay: PSA mRNA levels in LMR20 cells; format: cell-based, human; conditions: LMR20 cells; for PSA mRNA levels (% baseline value) after treatment with DHT: DHT 10 nM 72 hrs; for PSA mRNA levels (% baseline value) after treatment with R1881: R1881 10 nM 72 hrs; for PSA mRNA levels (% baseline value) of cells without AR agonist treatment: no AR agonist
Description: LMR20 cells were plated at 1,500 cells per well in phenol red-free medium with CSS. […] Results are presented in Tables 43-45 as mRNA levels expressed as a percentage of the baseline values. mRNA levels may be lowered or increased after treatment.

AR mRNA [4] = assay: Antisense inhibition of human AR in HuVEC cells, single concentration (electroporation, qRT-PCR RTS3559); format: cell-based; conditions: 250 nM ASO, ~24 h, Table 7
Method in brief: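 AR mRNA levels were measured with human primer-probe set RTS3559 and adjusted for total RNA (RIBOGREEN). Cells were HuVEC, with each antisense oligonucleotide delivered by electroporation at one concentration.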

AR mRNA [5] = assay: AR mRNA in liver, heart, skeletal muscle, kidney, prostate of cynomolgus monkeys; format: in vivo; conditions: cynomolgus monkey, 40 mg/kg subcutaneously
Description: Cynomolgus monkeys were treated with ISIS antisense oligonucleotides selected from studies described above. Antisense oligonucleotide efficacy and tolerability were evaluated. The human antisense oligonucleotides tested are cross-reactive with the rhesus genomic sequence (GENBANK Accession No. NW_001218131.1 truncated from nucleotides 134001 to 308000 and designated herein as SEQ ID NO: 189). The target start site and target region of each oligonucleotide to SEQ ID NO: 189, as well as the details of their chemistry and sequence, is presented in Table 133.
RNA was extracted from liver, heart, skeletal muscle, kidney, and prostate tissues for real-time PCR analysis of AR using primer probe set RTS3559. The results were normalized to RIBOGREEN®. Results are presented as percent inhibition of AR mRNA, relative to PBS control.

AR mRNA [6] = assay: AR mRNA levels in LMR20 cells (with/without DHT or R1881); format: cell-based, human; conditions: LMR20 cells; for AR mRNA levels (% baseline value) after treatment with DHT: DHT 10 nM 72 hrs; for AR mRNA levels (% baseline value) after treatment with R1881: R1881 10 nM 72 hrs; for AR mRNA levels (% baseline value) of cells without AR agonist treatment: no AR agonist
Description: as §1

[7] = cynomolgus monkey, in vivo, sc, 40 mg/kg
Description: (§2) Prior to the study, the monkeys were kept in quarantine for a 30-day period, during which the animals were observed daily for general health. The monkeys were 2-4 years old and weighed between 2 and 4 kg. Thirteen groups of four randomly assigned male cynomolgus monkeys each were injected subcutaneously with ISIS oligonucleotide or PBS. PBS solution or ISIS oligonucleotides, at a dose of 40 mg/kg, were administered with a loading regimen consisting of four doses on the first week of the study (days 1, 3, 5, and 7), followed by a maintenance regimen consisting of once weekly administration starting on Day 14 (weeks 2 to 6). Subcutaneous injections were performed in clock-wise rotations at 4 sites on the back; one site per dose. The injection sites were delineated by tattoo, while sedated using ketamine, and were separated by a minimum of 3 cm.
To evaluate the effect of ISIS oligonucleotides on the overall health of the animals, body and organ weights were measured.

[8] = cynomolgus monkey, in vivo, sc, 40 mg/kg; remark: listed apart in the source
Description: as §2
To evaluate any effect of ISIS oligonucleotides in cynomolgus monkeys on hematologic parameters, blood samples of approximately 0.5 mL of blood was collected day 44 from each of the available study animals in tubes containing K2-EDTA. Samples were analyzed for red blood cell (RBC) count, white blood cells (WBC) count, platelet count, hemoglobin content and hematocrit, using an ADVIA2120i hematology analyzer (SIEMENS, USA).

[9] = cynomolgus monkey, in vivo, sc, 40 mg/kg; remark: listed apart in the source
Description: as §2
To evaluate the effect of ISIS oligonucleotides on hepatic function, the monkeys were fasted overnight. Approximately, 1.5 mL of blood samples were collected on day 44 from all the study groups. Blood was collected in tubes without anticoagulant for serum separation. The tubes were kept at room temperature for a minimum of 90 min and then centrifuged at 3,000 rpm for 10 min. Levels of various liver function markers were measured using a Toshiba 120FR NEO chemistry analyzer (Toshiba Co., Japan).

[10] = cynomolgus monkey, in vivo, sc, 40 mg/kg; remark: listed apart in the source
[11] = cynomolgus monkey, in vivo, sc, 40 mg/kg; remark: listed apart in the source
Description: The monkeys were 2-4 years old and weighed between 2 and 4 kg. Thirteen groups of four randomly assigned male cynomolgus monkeys each were injected subcutaneously with ISIS oligonucleotide or PBS. PBS solution or ISIS oligonucleotides, at a dose of 40 mg/kg, were administered with a loading regimen consisting of four doses on the first week of the study (days 1, 3, 5, and 7), followed by a maintenance regimen consisting of once weekly administration starting on Day 14 (weeks 2 to 6). Subcutaneous injections were performed in clock-wise rotations at 4 sites on the back; one site per dose. The injection sites were delineated by tattoo, while sedated using ketamine, and were separated by a minimum of 3 cm.
To evaluate any inflammatory effect of ISIS oligonucleotides in cynomolgus monkeys, the monkeys were fasted overnight. Approximately, 1.5 mL of blood samples were collected from all the study groups on day 44. Blood was collected in tubes without anticoagulant for serum separation. The tubes were kept at room temperature for a minimum of 90 min and then centrifuged at 3,000 rpm for 10 min. C-reactive protein (CRP), which is synthesized in the liver and which serves as a marker of inflammation, was measured on day 43 using a Toshiba 120FR NEO chemistry analyzer (Toshiba Co., Japan). Complement C3 was also measured similarly, and the data is presented as a percentage of baseline values.

## 560131 (antisense kT*kT*kG*dA*dT*dT*dT*dA*dA*dT*dG*dG*kT*kT*kG*e[5mC]) [compound 560131]
AR mRNA [1]; 0.02 μM
  Percent inhibition of AR mRNA: 0%
AR mRNA [1]; 0.1 μM
  Percent inhibition of AR mRNA: 0%
AR mRNA [1]; 0.5 μM
  Percent inhibition of AR mRNA: 13%
AR mRNA [1]; 10 μM
  Percent inhibition of AR mRNA: 57%
AR mRNA [2]; 31.25 nM
  percent inhibition of AR: 16%
AR mRNA [2]; 62.5 nM
  percent inhibition of AR: 48%
AR mRNA [2]; 125.0 nM
  percent inhibition of AR: 65%
AR mRNA [2]; 500.0 nM
  percent inhibition of AR: 89%
AR mRNA [2]; 1000.0 nM
  percent inhibition of AR: 97%
AR mRNA [2]
  IC50: 90 nM
TMPRSS2 mRNA; ASO 0.04 μM
  TMPRSS2 mRNA levels (% baseline value) after treatment with DHT: 112 % baseline value
  TMPRSS2 mRNA levels (% baseline value) after treatment with R1881: 132 % baseline value
  TMPRSS2 mRNA levels (% baseline value) of cells without AR agonist treatment: 92 % baseline value
TMPRSS2 mRNA; ASO 0.20 μM
  TMPRSS2 mRNA levels (% baseline value) after treatment with DHT: 108 % baseline value
  TMPRSS2 mRNA levels (% baseline value) after treatment with R1881: 117 % baseline value
  TMPRSS2 mRNA levels (% baseline value) of cells without AR agonist treatment: 67 % baseline value
TMPRSS2 mRNA; ASO 1.0 μM
  TMPRSS2 mRNA levels (% baseline value) after treatment with DHT: 93 % baseline value
  TMPRSS2 mRNA levels (% baseline value) after treatment with R1881: 88 % baseline value
  TMPRSS2 mRNA levels (% baseline value) of cells without AR agonist treatment: 52 % baseline value
TMPRSS2 mRNA; ASO 5.0 μM
  TMPRSS2 mRNA levels (% baseline value) after treatment with DHT: 71 % baseline value
  TMPRSS2 mRNA levels (% baseline value) after treatment with R1881: 76 % baseline value
  TMPRSS2 mRNA levels (% baseline value) of cells without AR agonist treatment: 45 % baseline value
[3]; ASO 0.04 μM
  PSA mRNA levels (% baseline value) after treatment with DHT: 74 % baseline value
  PSA mRNA levels (% baseline value) after treatment with R1881: 92 % baseline value
  PSA mRNA levels (% baseline value) of cells without AR agonist treatment: 113 % baseline value
[3]; ASO 0.20 μM
  PSA mRNA levels (% baseline value) after treatment with DHT: 61 % baseline value
  PSA mRNA levels (% baseline value) after treatment with R1881: 77 % baseline value
  PSA mRNA levels (% baseline value) of cells without AR agonist treatment: 83 % baseline value
[3]; ASO 1.0 μM
  PSA mRNA levels (% baseline value) after treatment with DHT: 35 % baseline value
  PSA mRNA levels (% baseline value) after treatment with R1881: 44 % baseline value
  PSA mRNA levels (% baseline value) of cells without AR agonist treatment: 75 % baseline value
[3]; ASO 5.0 μM
  PSA mRNA levels (% baseline value) after treatment with DHT: 35 % baseline value
  PSA mRNA levels (% baseline value) after treatment with R1881: 35 % baseline value
  PSA mRNA levels (% baseline value) of cells without AR agonist treatment: 71 % baseline value
AR mRNA [4]
  % inhibition: 74%
AR mRNA [5]; weeks 1 to 6, Heart
  Percent Inhibition of AR mRNA relative to the PBS control, Heart: 32%
AR mRNA [5]; weeks 1 to 6, Kidney
  Percent Inhibition of AR mRNA relative to the PBS control, Kidney: 19%
AR mRNA [5]; weeks 1 to 6, Liver
  Percent Inhibition of AR mRNA relative to the PBS control, Liver: 65%
AR mRNA [5]; weeks 1 to 6, Prostate
  Percent Inhibition of AR mRNA relative to the PBS control, Prostate: 27%
AR mRNA [5]; weeks 1 to 6, Skeletal Muscle
  Percent Inhibition of AR mRNA relative to the PBS control, Skeletal Muscle: 30%
AR mRNA [6]; ASO 0.04 μM
  AR mRNA levels (% baseline value) after treatment with DHT: 89 % baseline value
  AR mRNA levels (% baseline value) after treatment with R1881: 87 % baseline value
  AR mRNA levels (% baseline value) of cells without AR agonist treatment: 107 % baseline value
AR mRNA [6]; ASO 0.20 μM
  AR mRNA levels (% baseline value) after treatment with DHT: 55 % baseline value
  AR mRNA levels (% baseline value) after treatment with R1881: 65 % baseline value
  AR mRNA levels (% baseline value) of cells without AR agonist treatment: 74 % baseline value
AR mRNA [6]; ASO 1.0 μM
  AR mRNA levels (% baseline value) after treatment with DHT: 25 % baseline value
  AR mRNA levels (% baseline value) after treatment with R1881: 30 % baseline value
  AR mRNA levels (% baseline value) of cells without AR agonist treatment: 29 % baseline value
AR mRNA [6]; ASO 5.0 μM
  AR mRNA levels (% baseline value) after treatment with DHT: 20 % baseline value
  AR mRNA levels (% baseline value) after treatment with R1881: 26 % baseline value
  AR mRNA levels (% baseline value) of cells without AR agonist treatment: 17 % baseline value

## TGATTTAATGGTTGCA [ISIS 569213] (cEt/MOE gapmer chemistry, further chemistry not given here)
[7]
  Body Wt: 2.4 kg
  Heart weight: 8.3 g
  Kidney weight: 16 g
  Liver weight: 69 g
  Mesenteric lymph nodes weight: 2.4 g
  Spleen weight: 5.3 g
[8]
  HCT: 42%
  Hemoglobin: 12.5 g/dL
  Platelets: 426000 µL
  RBC: 5.6e+06 µL
  WBC: 12900 µL
[9]
  ALT: 47 IU/L
  AST: 80 IU/L
  Albumin: 3.7 g/dL
[10]
  Plasma BUN: 29.4 mg/dL
  Plasma Creatinine: 0.91 mg/dL
[11]
  C3 (% of baseline): 60 % of baseline
  CRP: 2.8 mg/dL
